*1 amine or outer side, *2 acyl side, *3 side chain or, on linkers, in order; H or OH if unused. Where a SMILES comes first, the peptide text is derived from it. [ ]: non-standard residue; d: D form. The star is where a group is joined. X3 = Cc1cc(F)cc(-c2cnc(NCCNC(=O)CCOCCOCCOCCOCCC(=O)*)c(-c3nc4ccc(Cl)cc4[nH]3)c2N2CCC(N)CC2)c1; Dolaproine = CO[C@@H]([C@@H]1CCCN1)[C@@H](C)C(=O)O; Dil = CC[C@H](C)[C@H](NC)[C@@H](CC(=O)O)OC; PABC = O=C(OCc1ccc(N[*:1])cc1)[*:2]; X2 = C[C@@H](N*)[C@@H](O)c1ccccc1; Cit = NC(=O)NCCC[C@H](N)C(=O)O; NMeV = CN[C@H](C(=O)O)C(C)C; Ahx = NCCCCCC(=O)O
Legend:
Assay type in all cases: cell-based
[1] = molecular target: T1, human somatostatin receptor subtype 2 (Homo sapiens, UniProt P30874); test: Functional assay for SSTR2 agonists (HTRF cAMP); conditions: CHO-K1 cells stably expressing human SST2; NKH477-stimulated cAMP; 20 min at 37 C; read-out: hSST2 cAMP Avg EC50
T1 construct: expressed in transfected cells
T1 sequence (P30874 whole entry): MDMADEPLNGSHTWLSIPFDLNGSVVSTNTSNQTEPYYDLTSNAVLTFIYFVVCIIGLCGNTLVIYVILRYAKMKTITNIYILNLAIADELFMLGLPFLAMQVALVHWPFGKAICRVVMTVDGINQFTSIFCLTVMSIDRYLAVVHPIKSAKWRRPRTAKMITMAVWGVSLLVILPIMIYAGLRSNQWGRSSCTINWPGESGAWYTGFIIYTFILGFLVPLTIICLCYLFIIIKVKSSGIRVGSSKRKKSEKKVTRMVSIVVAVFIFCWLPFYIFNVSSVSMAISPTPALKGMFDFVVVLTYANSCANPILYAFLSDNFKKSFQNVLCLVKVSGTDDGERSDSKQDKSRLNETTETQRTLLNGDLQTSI
Description: General overview: All five SSTR subtypes are Gi coupled G-protein coupled receptors (GPCRs) that lead to decreases in intracellular cyclic AMP (cAMP) when activated by an agonist. Therefore, measurement of intracellular cAMP levels can be used to assess whether compounds of the invention are agonists of SSTR subtypes (John Kelly, Troy Stevens, W. Joseph Thompson, and Roland Seifert, Current Protocols in Pharmacology. 2005, 2.2.1-2.2). One example of an intracellular cAMP assay is described below.
Four days prior to the assay, 2,000 Chinese hamster ovary cells (CHO-K1, ATCC #CCL-61) stably expressing the human somatostatin receptor subtype 2 are plated in each well of a 96-well tissue culture-treated plate in Ham's F12 growth media (ThermoFisher #10-080-CM) supplemented with 10% donor bovine serum (Gemini Bio-Products #100-506), 100 U/mL penicillin; 100 ug/mL streptomycin, 2 mM L-glutamine (Gemini Bio-Products #400-110) and 0.2 mg/mL hygromycin B (GoldBio #31282-04-9). The cells are cultured at 37° C., 5% CO2 and 95% humidity. cAMP is measured with HTRF dynamic cAMP assay (Cisbio. #62AM5PEJ) per manufacturer's instructions. […] The cells are incubated for 20 minutes at 37° C. (the final concentration of the compounds of the invention are typically 0-10,000 nM). The cells are treated with 50 μL of lysis buffer (HRTF cAMP kit, Cisbio) and incubated at room temperature for 30 minutes with rotary shaking at 600 rpm, and then diluted with 150 μL of stimulation buffer and shaken for an additional five minutes at 300 rpm. The lysate is transferred to 384-well plates and incubated for 1-24 hours at room temperature, and cAMP accumulation is detected by d2-labeled cAMP and Anti-cAMP-Cryptate. The time-resolved fluorescent signal is read using a m1000 Pro (Tecan) or CLARIOStar (BMG Labtech) microplate reader, where the samples are excited with light at 340 nm and emission light is measured at 620 nm and 665 nm. The data is expressed as a calculation of the fluorescence ratio (665 nm/620 nm). The intracellular cAMP concentrations are calculated by regression to a standard curve and are plotted vs, the concentration of the compounds of the invention. The EC50 of the compounds are calculated using standard methods. All data manipulations are in GraphPad Prism v9 (GraphPad, San Diego, CA).

SST2 = molecular target: T2, SST2 (Homo sapiens, UniProt P30874); test: PathHunter CHO-K1 SST2 Internalization Assay; conditions: PathHunter CHO-K1 SST2 cells; 90 min at 37 C; luminescence; read-out: Internalization EC50
T2 construct: host or cells: PathHunter CHO-K1 SST2 cells
T2 sequence (P30874 whole entry): as above
Description: NDCs of the present invention were assessed in vitro using the human PathHunter CHO-K1 SST2 β-arrestin2 and PathHunter CHO-K1 SST2 Internalization Assays from DiscoverX. The CHO-K cells were seeded in 20 μLs of cell culture medium in a white-walled 384 well tissue culture-compatible plate at a density of 2500 cells/well. After a 48-hour incubation, cells were treated with 5 μLs of a 1:3 serially diluted SST2 NDC prepared at 5× concentration with a final top compound concentration of 10 uM for 90 min at 37 C and in 5% CO2. 11 dilutions were tested as well as one treatment that was compound free. After incubation, the media containing treatments were discarded and 20 μL of a working solution of Beta-Glo from Promega Beta-Go Assay System was added to each well. The plate was then incubated for 60 min at room temperature in the dark. Luminescence was measured using a Tecan plate reader. IC50 curves were generated using the nonlinear regression analysis (four-parameters) with GraphPad Prism 9. Results were the average of duplicates and are corrected for background.

[2] = system: NCI-H524 human small cell lung cancer cells; test: H524 assay: inhibition of cell proliferation (CellTiter Glo); conditions: 2 h treatment, washout, additional 70 h incubation
Description: NDCs of the present invention were assessed in an in vitro assay evaluating the inhibition of cell proliferation. NCI-H524 (ATCC) human small cell lung cancer cells were plated in 96-well V-bottom plates (Costar) at a concentration of 5,000 cells/well. 24 h later, the cells were treated for 2 h with a NDC. NDC starting dose was 1 uM and two-fold serial dilutions were done for a total of 11 points. After 2 h of treatment, cells were spun down, and the drug-containing media was removed, and fresh complete media was added and used to resuspend the cells, which were spun again. After removal of the media, the cells were resuspended in complete medium and incubated for an additional 70 h. Cell proliferation was assessed using the CellTiter Glo Assay according to the standard protocol (Promega). Luminescence was measured using a TECAN plate reader. Percent proliferation inhibition was calculated using the following formula: % inhibition=(Luminescence Control−Luminescence Treatment)/Luminescence Control*100. IC50 curves were generated using the nonlinear regression analysis (four-parameter) with GraphPad Prism 9.

SMILES	EC50 [1]	EC50 (SST2)	EC50 [2]
CC[C@H](C)[C@@H]([C@@H](CC(=O)N1CCC[C@H]1[C@H](OC)[C@@H](C)C(=O)N[C@H](C)[C@@H](O)c1ccccc1)OC)N(C)C(=O)[C@@H](NC(=O)[C@H](C(C)C)N(C)C(=O)OCc1ccc(NC(=O)[C@H](CCCNC(N)=O)NC(=O)[C@@H](NC(=O)CCOCCOCCOCCOCCC(=O)NCCNc2ncc(-c3cc(C)cc(F)c3)c(N3CCC(N)CC3)c2-c2nc3ccc(Cl)cc3[nH]2)C(C)C)cc1C(=O)NCC(=O)O)C(C)C [Compound 86]	0.068 nM	4.1 nM	1000 nM
CC[C@H](C)[C@@H]([C@@H](CC(=O)N1CCC[C@H]1[C@H](OC)[C@@H](C)C(=O)N[C@H](C)[C@@H](O)c1ccccc1)OC)N(C)C(=O)[C@@H](NC(=O)[C@H](C(C)C)N(C)C(=O)OCc1ccc(NC(=O)[C@H](CCCNC(N)=O)NC(=O)[C@@H](NC(=O)[C@@H](CS(=O)(=O)O)NC(=O)CCOCCC(=O)NCCNc2ncc(-c3cc(C)cc(F)c3)c(N3CCC(N)CC3)c2-c2nc3ccc(Cl)cc3[nH]2)C(C)C)cc1C(=O)N1CC(N)C1)C(C)C [Compound 76]	0.075 nM	4.7 nM	12 nM
CC[C@H](C)[C@@H]([C@@H](CC(=O)N1CCC[C@H]1[C@H](OC)[C@@H](C)C(=O)N[C@H](C)[C@@H](O)c1ccccc1)OC)N(C)C(=O)[C@@H](NC(=O)[C@H](C(C)C)N(C)C(=O)OCc1ccc(NC(=O)[C@H](C)NC(=O)[C@@H](NC(=O)C[C@@H](N)C(=O)NCCOCCC(=O)NCCNc2ncc(-c3cc(C)cc(F)c3)c(N3CCC(NC)CC3)c2-c2nc3ccc(Cl)cc3[nH]2)C(C)C)c(O[C@@H]2O[C@H](C(=O)O)[C@@H](O)[C@H](O)[C@H]2O)c1)C(C)C [Compound 135]	0.42 nM	3.6 nM	–
CC[C@H](C)[C@@H]([C@@H](CC(=O)N1CCC[C@H]1[C@H](OC)[C@@H](C)C(=O)N[C@H](C)[C@@H](O)c1ccccc1)OC)N(C)C(=O)[C@@H](NC(=O)[C@H](C(C)C)N(C)C(=O)OCc1ccc(NC(=O)[C@H](CCCNC(N)=O)NC(=O)[C@@H](NC(=O)CCCCCNC(=O)[C@H](CCC(N)=O)NC(=O)[C@H](CCC(N)=O)NC(=O)CCOCCOCCOCCOCCC(=O)NCCNc2ncc(-c3cc(C)cc(F)c3)c(N3CCC(N)CC3)c2-c2nc3ccc(Cl)cc3[nH]2)C(C)C)cc1)C(C)C [Compound 143] (X3-QQ[Ahx]V[Cit][PABC][NMeV]V[Dil][Dolaproine]-X2)	0.4 nM	–	–
CC[C@H](C)[C@@H]([C@@H](CC(=O)N1CCC[C@H]1[C@H](OC)[C@@H](C)C(=O)N[C@H](C)[C@@H](O)c1ccccc1)OC)N(C)C(=O)[C@@H](NC(=O)[C@H](C(C)C)N(C)C(=O)OCc1ccc(NC(=O)[C@H](CCCNC(N)=O)NC(=O)[C@@H](NC(=O)CCOCCC(=O)NCCNc2ncc(-c3cc(C)cc(F)c3)c(N3CCC(N)CC3)c2-c2nc3ccc(Cl)cc3[nH]2)C(C)C)cc1C(=O)O)C(C)C [Compound 7]	0.26 nM	–	–
CC[C@H](C)[C@@H]([C@@H](CC(=O)N1CCC[C@H]1[C@H](OC)[C@@H](C)C(=O)N[C@H](C)[C@@H](O)c1ccccc1)OC)N(C)C(=O)[C@@H](NC(=O)[C@H](C(C)C)N(C)C(=O)OCc1ccc(NC(=O)[C@H](CCCNC(N)=O)NC(=O)[C@@H](NC(=O)CCOCCC(=O)NCCNc2ncc(-c3cc(C)cc(F)c3)c(N3CCC(N)CC3)c2-c2nc3ccc(Cl)cc3[nH]2)C(C)C)cc1C(=O)NCC(=O)O)C(C)C [Compound 60]	0.17 nM	–	–
CC[C@H](C)[C@@H]([C@@H](CC(=O)N1CCC[C@H]1[C@H](OC)[C@@H](C)C(=O)N[C@H](C)[C@@H](O)c1ccccc1)OC)N(C)C(=O)[C@@H](NC(=O)[C@H](C(C)C)N(C)C(=O)OCc1ccc(NC(=O)[C@H](CCCNC(N)=O)NC(=O)[C@@H](NC(=O)CCCC(=O)N(C)CC(=O)N(C)CC(=O)N(C)CC(=O)NCCNc2ncc(-c3cc(C)cc(F)c3)c(N3CCC(N)CC3)c2-c2nc3ccc(Cl)cc3[nH]2)C(C)C)c(O[C@@H]2O[C@H](C(=O)O)[C@@H](O)[C@H](O)[C@H]2O)c1)C(C)C [Compound 130]	–	–	3800 nM
CC[C@H](C)[C@@H]([C@@H](CC(=O)N1CCC[C@H]1[C@H](OC)[C@@H](C)C(=O)N[C@H](C)[C@@H](O)c1ccccc1)OC)N(C)C(=O)[C@@H](NC(=O)[C@H](C(C)C)N(C)C(=O)OCc1ccc(NC(=O)[C@H](C)NC(=O)[C@@H](NC(=O)CCOCCC(=O)N(C)CC(=O)NCCNc2ncc(-c3cc(C)cc(F)c3)c(N3CCC(N)CC3)c2-c2cc3ccc(Cl)cc3[nH]2)C(C)C)c(O[C@@H]2O[C@H](C(=O)NCCN)[C@@H](O)[C@H](O)[C@H]2O)c1)C(C)C [Compound 47]	0.31 nM	–	–
CC[C@H](C)[C@@H]([C@@H](CC(=O)N1CCC[C@H]1[C@H](OC)[C@@H](C)C(=O)N[C@H](C)[C@@H](O)c1ccccc1)OC)N(C)C(=O)[C@@H](NC(=O)[C@H](C(C)C)N(C)C(=O)OCc1ccc(NC(=O)[C@H](C)NC(=O)[C@@H](NC(=O)CCCC(=O)N(C)CC(=O)NCCNc2ncc(-c3cc(C)cc(F)c3)c(N3CCC(N)CC3)c2-c2nc3ccc(Cl)cc3[nH]2)C(C)C)c(O[C@@H]2O[C@H](C(=O)NCCN)[C@@H](O)[C@H](O)[C@H]2O)c1)C(C)C [Compound 45]	1.3 nM	–	–
CC[C@H](C)[C@@H]([C@@H](CC(=O)N1CCC[C@H]1[C@H](OC)[C@@H](C)C(=O)N[C@H](C)[C@@H](O)c1ccccc1)OC)N(C)C(=O)[C@@H](NC(=O)[C@H](C(C)C)N(C)C(=O)OCc1ccc(O[C@@H]2O[C@H](C(=O)O)[C@@H](O)[C@H](O)[C@H]2O)c(NC(=O)[C@H](CCCNC(N)=O)NC(=O)[C@@H](NC(=O)CCOCCC(=O)NCCNc2ncc(-c3cc(C)cc(F)c3)c(N3CCC(N)CC3)c2-c2nc3ccc(Cl)cc3[nH]2)C(C)C)c1)C(C)C [Compound 248]	–	–	3.2 nM
CC[C@H](C)[C@@H]([C@@H](CC(=O)N1CCC[C@H]1[C@H](OC)[C@@H](C)C(=O)N[C@H](C)[C@@H](O)c1ccccc1)OC)N(C)C(=O)[C@@H](NC(=O)[C@H](C(C)C)N(C)C(=O)OCc1ccc(NC(=O)[C@H](CCCNC(N)=O)NC(=O)[C@@H](NC(=O)CCOCCC(=O)NCCNc2ncc(-c3cc(C)cc(F)c3)c(N3CCC(N)CC3)c2-c2nc3ccc(Cl)cc3[nH]2)C(C)C)c(O[C@@H]2O[C@H](C(=O)NCCNC(=O)CCCCCCCCCCCCCCC(=O)O)[C@@H](O)[C@H](O)[C@H]2O)c1)C(C)C [Compound 53]	0.48 nM	–	200 nM
CC[C@H](C)[C@@H]([C@@H](CC(=O)N1CCC[C@H]1[C@H](OC)[C@@H](C)C(=O)N[C@H](C)[C@@H](O)c1ccccc1)OC)N(C)C(=O)[C@@H](NC(=O)[C@H](C(C)C)N(C)C(=O)OCc1ccc(NC(=O)[C@H](C)NC(=O)[C@@H](NC(=O)CCOCCC(=O)N(C)CC(=O)NCCNc2ncc(-c3cc(C)cc(F)c3)c(N3CCC(N)CC3)c2-c2cc3ccc(Cl)cc3[nH]2)C(C)C)c(O[C@@H]2O[C@H](C(=O)NCCN)[C@@H](O)[C@H](O)[C@H]2O)c1)C(C)C [Compound 46]	0.23 nM	–	–
